From patent US10722520B2, “Heterocyclic compounds and their use in preventing or treating bacterial infections” (MUTABILIS, priority 2016, dated 2020)
pIC50: −log10 of the molar value.

Key:
OXA-1 = OXA-1 (Escherichia coli, UniProt P13661)
K. pneumoniae UFR77 = experiment: MIC of compound alone, broth microdilution; type: cell-based; conditions: Klebsiella pneumoniae; strain UFR77: K. pneumoniae; CMY-2; read-out: MIC compounds of the invention alone
How it was run: (§1)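 Growth inhibition was scored by eye after 16-20 h at 35° C (room air), with bacteria from log phase seeded at 5×10^5 cfu/mL final in cation-adjusted Mueller-Hinton medium.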

K. pneumoniae BAA-1898 = experiment: MIC of compound alone, broth microdilution; type: cell-based; conditions: Klebsiella pneumoniae, BAA1898; strain BAA-1898: K. pneumoniae; TEM-1, SHV-11, SHV-12, KPC-2; read-out: MIC compounds of the invention alone
How it was run: as §1

E. coli UFR32 = experiment: MIC of compound alone, broth microdilution; type: cell-based; conditions: Escherichia coli; strain UFR32: E. coli; TEM-1, VEB-1, OXA-10; read-out: MIC compounds of the invention alone
How it was run: as §1

E. cloacae UFR85 = experiment: MIC of compound alone, broth microdilution; type: cell-based; conditions: Enterobacter cloacae; strain UFR85: E. cloacae; TEM-1, CTX-M-15, AmpC; read-out: MIC compounds of the invention alone
How it was run: as §1

E. cloacae P99 = experiment: MIC of compound alone, broth microdilution; type: cell-based; conditions: Enterobacter cloacae; strain P99: E. cloacae; AmpC; read-out: MIC compounds of the invention alone
How it was run: as §1

E. coli UFR41 = experiment: MIC of compound alone, broth microdilution; type: cell-based; conditions: Escherichia coli; strain UFR41: E. coli; TEM-1, CTX-M-15, CMY-2, OXA-1, NDM-4; read-out: MIC compounds of the invention alone
How it was run: as §1

E. coli UFR18 = experiment: MIC of compound alone, broth microdilution; type: cell-based; conditions: Escherichia coli; strain UFR18: E. coli; CTX-M-15, OXA-204; read-out: MIC compounds of the invention alone
How it was run: as §1

E. coli UFR61O = experiment: MIC of compound alone, broth microdilution; type: cell-based; conditions: Escherichia coli; strain UFR61O: E. coli; TEM-1, KPC-2; read-out: MIC compounds of the invention alone
How it was run: as §1

E. coli 131119 = experiment: MIC of compound alone, broth microdilution; type: cell-based; conditions: Escherichia coli; strain 131119: E. coli; TEM-1, OXA-48; read-out: MIC compounds of the invention alone
How it was run: as §1

E. coli UFR39 = experiment: MIC of compound alone, broth microdilution; type: cell-based; conditions: Escherichia coli, UFR39, read-out: MIC compounds of the invention alone
How it was run: as §1

K. pneumoniae UFR24 = experiment: MIC of compound alone, broth microdilution; type: cell-based; conditions: Klebsiella pneumoniae; strain UFR24: K. pneumoniae; TEM-1, SHV-2, SHV-11, OXA-1, OXA-48, OXA-47; read-out: MIC compounds of the invention alone
How it was run: as §1

P. aeruginosa CIP107051 = experiment: MIC of compound alone, broth microdilution; type: cell-based; conditions: Pseudomonas aeruginosa; strain CIP107051: P. aeruginosa; TEM-24; read-out: MIC compounds of the invention alone
How it was run: as §1

K. pneumoniae 200047 = experiment: MIC of compound alone, broth microdilution; type: cell-based; conditions: Klebsiella pneumoniae; strain 200047: K. pneumoniae; TEM-1, SHV-32, CTX-M-15, OXA-1; read-out: MIC compounds of the invention alone
How it was run: as §1

E. cloacae UFR51 = experiment: MIC of compound alone, broth microdilution; type: cell-based; conditions: Enterobacter cloacae; strain UFR51: E. cloacae; SHV-12, IMP-8; read-out: MIC compounds of the invention alone
How it was run: as §1

E. coli UFR74 = experiment: MIC of compound alone, broth microdilution; type: cell-based; conditions: Escherichia coli; strain UFR74: E. coli; SHV-1, DHA-1; read-out: MIC compounds of the invention alone
How it was run: as §1

K. pneumoniae UFR68 = experiment: MIC of compound alone, broth microdilution; type: cell-based; conditions: Klebsiella pneumoniae; strain UFR68: K. pneumoniae; TEM-1, SHV-11, CTX-M-15, KPC-3; read-out: MIC compounds of the invention alone
How it was run: as §1

K. pneumoniae 6299 = experiment: MIC of compound alone, broth microdilution; type: cell-based; conditions: Klebsiella pneumoniae; strain 6299: K. pneumoniae; TEM-1, SHV-11, OXA-163; read-out: MIC compounds of the invention alone
How it was run: as §1

E. coli 190317 = experiment: MIC of compound alone, broth microdilution; type: cell-based; conditions: Escherichia coli; strain 190317: E. coli; TEM-1, SHV-12, CTX-M-15, OXA-1; read-out: MIC compounds of the invention alone
How it was run: as §1

E. cloacae 260508 = experiment: MIC of compound alone, broth microdilution; type: cell-based; conditions: Enterobacter cloacae; strain 260508: E. cloacae; TEM-1, CTX-M-15; read-out: MIC compounds of the invention alone
How it was run: as §1

K. oxytoca UFR21 = experiment: MIC of compound alone, broth microdilution; type: cell-based; conditions: Klebsiella oxytoca; strain UFR21: K. oxytoca; TEM-1, CTX-M-15, OXA-48; read-out: MIC compounds of the invention alone
How it was run: as §1

K. pneumoniae 160143 = experiment: MIC of compound alone, broth microdilution; type: cell-based; conditions: Klebsiella pneumoniae; strain 160143: K. pneumoniae; TEM-1, SHV-1, CTX-M-15, KPC-2, OXA-1; read-out: MIC compounds of the invention alone
How it was run: as §1

E. cloacae UFR70 = experiment: MIC of compound alone, broth microdilution; type: cell-based; conditions: Enterobacter cloacae; strain UFR70: E. cloacae; TEM-1, CTX-M-15, CMY-2, OXA-1, Porin loss; read-out: MIC compounds of the invention alone
How it was run: as §1

E. coli RGN238 = experiment: microbe, parasite or virus in culture; type: cell-based; conditions: Escherichia coli, RGN238, read-out: MIC compounds of the invention alone
Method: Log phase bacterial suspensions were adjusted to a final density of 5×10^5 cfu/mL in cation-adjusted Mueller-Hinton broth (Becton-Dickinson) and added to each well (98 μL). Microplates were incubated for 16-20 h at 35° C. in ambient air. The MIC of the compounds was defined as the lowest concentration of said compounds that prevented bacterial growth as read by visual inspection.

AmpC (P99) = AmpC (P99) (Enterobacter cloacae, UniProt P05364); experiment: biochemical
OXA-11 = OXA-11 (Pseudomonas aeruginosa, UniProt Q06778)

| SMILES | pIC50 (OXA-1) | MIC (K. pneumoniae UFR77) [µg/mL] | MIC (K. pneumoniae BAA-1898) [µg/mL] | MIC (E. coli UFR32) [µg/mL] | MIC (E. cloacae UFR85) [µg/mL] | MIC (E. cloacae P99) [µg/mL] | MIC (E. coli UFR41) [µg/mL] | MIC (E. coli UFR18) [µg/mL] | MIC (E. coli UFR61O) [µg/mL] | MIC (E. coli 131119) [µg/mL] | MIC (E. coli UFR39) [µg/mL] | MIC (K. pneumoniae UFR24) [µg/mL] | MIC (P. aeruginosa CIP107051) [µg/mL] | MIC (K. pneumoniae 200047) [µg/mL] | MIC (E. cloacae UFR51) [µg/mL] | MIC (E. coli UFR74) [µg/mL] | MIC (K. pneumoniae UFR68) [µg/mL] | MIC (K. pneumoniae 6299) [µg/mL] | MIC (E. coli 190317) [µg/mL] | MIC (E. cloacae 260508) [µg/mL] | also measured |
| --- | --- | --- | --- | --- | --- | --- | --- | --- | --- | --- | --- | --- | --- | --- | --- | --- | --- | --- | --- | --- | --- |
| O=C1N2CC(n3ccsc3=O)=CC(C2)N1OS(=O)(=O)[O-].[Na+] (stereo not shown) [Example 1, Sodium [7-oxo-3-(2-oxo-thiazol-3-yl)-1,6-diaza-bicyclo[3.2.1]oct-3-en-6-yl]sulfate] | 6.92 | 8 | 8 | 4 | 4 | 4 | 4 | 2 | 16 | 2 | 2 | 16 | > 32 | 8 | 4 | 16 | 8 | 32 | 2 | 4 | MIC (K. oxytoca UFR21): 8 µg/mL; MIC (K. pneumoniae 160143): 4 µg/mL; MIC (E. cloacae UFR70): 4 µg/mL; MIC (E. coli RGN238): 8 µg/mL; pIC50 (AmpC (P99)): 7.52; pIC50 (OXA-11): 7.04 |
| O=C1N2CC(n3cncn3)=CC(C2)N1OS(=O)(=O)[O-].[Na+] (stereo not shown) [Example 5, sodium [7-oxo-3-(1,2,4-triazol-1-yl)-1,6-diazabicyclo[3.2.1]oct-3-en-6-yl]sulfate] | 7.31 | 4 | 4 | 2 | 4 | 4 | 4 | 2 | 8 | 2 | 2 | 2 | > 32 | 2 | 4 | 4 | 4 | 4 | 1 | 4 | MIC (K. oxytoca UFR21): 4 µg/mL; MIC (K. pneumoniae 160143): 2 µg/mL; MIC (E. cloacae UFR70): 2 µg/mL; MIC (E. coli RGN238): 2 µg/mL; pIC50 (AmpC (P99)): 7.80; pIC50 (OXA-11): 7.85 |
